From patent US20210379077A1, “TOPOISOMERASE II CATALYTIC INHIBITOR COMPOUND THERAPEUTICS FOR CANCER TREATMENT, METHODS AND USES” (The University of British Columbia, priority 2018, published 2021)

Assays:
Topoisomerase II = target: T1, Topoisomerase II (Homo sapiens, UniProt P11388); experiment: Topoisomerase II inhibition screening (supercoiled plasmid relaxation, then kDNA decatenation); type: biochemical; set-up: key to TOP2 Inhib.: Y is an indication that activity was found; settings: for relative activity among compounds tested in the screening round: medium throughput relaxation and kDNA decatenation assays
T1 construct: purchased TopoGENE (TopoGEN) TG2000H / kit TG1001
Description: In vitro Topo II activity assays—K-DNA decatenation assays were performed using the human Topo II assay kit (TG1001, TopoGENE™) with Etoposide and ICRF193 as poison and catalytic inhibitors respectively. DNA relaxation assays were performed by incubating the supercoiled pHOT™ plasmid with human Topo IIα (TG2000H™, TopoGENE™) at 37 degrees for one hour. Reactions were stopped by adding 10% SDS, EDTA and proteinase K. Plasmid DNAs were separated on DNA agarose gel and stained with ethidium bromide for visualization.
Medium Throughput Screening Assays A supercoiled plasmid relaxation assay was used as a first, course filter to determine candidate small molecules. Small molecule candidates that were sufficiently active in the first round screening were then subject to the kDNA decatenation assay.
Second Round Screening With the discovered active compounds 19 and 23, a new screen was initiated to look for similar molecules. For this, the shape similarity screening program ROCS™^10 was used The compounds chosen for the ROCS™ search was based on the docking conformation of Compound 23. The ZINC-15 library filtered down to 6 million molecules described previously was used for this screening. The top 62 molecules were hand-picked based on their ROCS™ similarity as well as their docking scores. These molecules were ordered and tested with the same medium throughput assays previously described. A large enrichment in the proportion of active molecules was observed, of close to 10-fold relative to the first round, validating the virtual screening pipeline.

Cancer Cell = experiment: Cancer cell growth inhibition; type: cell-based; set-up: key: Y is an indication that activity was found
Description: BrDU incorporation and cell proliferation assays—Cell proliferation rates were measured by using the CellTitre™ 96 AqueousOne™ kit (Promega™) and bromodeoxyuridine (BrdU) assay kit (Millipore™) according to the manufacturer's protocol, with minor modifications as we have previously described by Li H. et al.^19

K562 cells = experiment: γH2AX Western blot (DNA damage in cells); type: cell-based; settings: 10-20 μM, 4 hours
Description: Cytotoxicity was evaluated by measuring LDH levels from cell culture media; (b) K562 cells were treated with either vehicle or 10-20 μM of Top60, Etoposide and ICRF187 for 4 hours. Whole cell lyses were collected to measure γH2AX levels with vinculin as the loading control; (c) K562 cells were treated with 0, 1, 5, 10, 15 and 20 μM of Top60, 20 μM Etoposide or 20 uM ICRF187 for 48 hours. Cell proliferation rates were determined by MTS assays; and (d) K562 cells were treated with 20 μM of Top60, Etoposide or ICRF187 for 0, 24, 48 and 72 hours. Cell proliferation rates were measured by MTS assays. All results were collected from three independent experiments.
Top60 is a catalytic inhibitor of Topo II To verify that our lead Compound 60(Top60), the formation of ds DNA breaks was assayed both in and outside of cells. To assess whether Top60 causes double stranded DNA breaks outside cells, supercoiled plasmid was incubated with and without Top60 in the presence of Topo II (FIG. 1d). […] Furthermore, H2AXγ protein expression was assessed by Western blot to determine if the lead compound could cause DNA damage in cells, and compared to Etoposide as a control (FIG. 3b). […] To determine if Top60 was capable of intercalating DNA, it was incubated with relaxed plasmid at increasing concentrations and compared with m-AMSA, a known intercalator. […]

T1 sequence (P11388 whole entry): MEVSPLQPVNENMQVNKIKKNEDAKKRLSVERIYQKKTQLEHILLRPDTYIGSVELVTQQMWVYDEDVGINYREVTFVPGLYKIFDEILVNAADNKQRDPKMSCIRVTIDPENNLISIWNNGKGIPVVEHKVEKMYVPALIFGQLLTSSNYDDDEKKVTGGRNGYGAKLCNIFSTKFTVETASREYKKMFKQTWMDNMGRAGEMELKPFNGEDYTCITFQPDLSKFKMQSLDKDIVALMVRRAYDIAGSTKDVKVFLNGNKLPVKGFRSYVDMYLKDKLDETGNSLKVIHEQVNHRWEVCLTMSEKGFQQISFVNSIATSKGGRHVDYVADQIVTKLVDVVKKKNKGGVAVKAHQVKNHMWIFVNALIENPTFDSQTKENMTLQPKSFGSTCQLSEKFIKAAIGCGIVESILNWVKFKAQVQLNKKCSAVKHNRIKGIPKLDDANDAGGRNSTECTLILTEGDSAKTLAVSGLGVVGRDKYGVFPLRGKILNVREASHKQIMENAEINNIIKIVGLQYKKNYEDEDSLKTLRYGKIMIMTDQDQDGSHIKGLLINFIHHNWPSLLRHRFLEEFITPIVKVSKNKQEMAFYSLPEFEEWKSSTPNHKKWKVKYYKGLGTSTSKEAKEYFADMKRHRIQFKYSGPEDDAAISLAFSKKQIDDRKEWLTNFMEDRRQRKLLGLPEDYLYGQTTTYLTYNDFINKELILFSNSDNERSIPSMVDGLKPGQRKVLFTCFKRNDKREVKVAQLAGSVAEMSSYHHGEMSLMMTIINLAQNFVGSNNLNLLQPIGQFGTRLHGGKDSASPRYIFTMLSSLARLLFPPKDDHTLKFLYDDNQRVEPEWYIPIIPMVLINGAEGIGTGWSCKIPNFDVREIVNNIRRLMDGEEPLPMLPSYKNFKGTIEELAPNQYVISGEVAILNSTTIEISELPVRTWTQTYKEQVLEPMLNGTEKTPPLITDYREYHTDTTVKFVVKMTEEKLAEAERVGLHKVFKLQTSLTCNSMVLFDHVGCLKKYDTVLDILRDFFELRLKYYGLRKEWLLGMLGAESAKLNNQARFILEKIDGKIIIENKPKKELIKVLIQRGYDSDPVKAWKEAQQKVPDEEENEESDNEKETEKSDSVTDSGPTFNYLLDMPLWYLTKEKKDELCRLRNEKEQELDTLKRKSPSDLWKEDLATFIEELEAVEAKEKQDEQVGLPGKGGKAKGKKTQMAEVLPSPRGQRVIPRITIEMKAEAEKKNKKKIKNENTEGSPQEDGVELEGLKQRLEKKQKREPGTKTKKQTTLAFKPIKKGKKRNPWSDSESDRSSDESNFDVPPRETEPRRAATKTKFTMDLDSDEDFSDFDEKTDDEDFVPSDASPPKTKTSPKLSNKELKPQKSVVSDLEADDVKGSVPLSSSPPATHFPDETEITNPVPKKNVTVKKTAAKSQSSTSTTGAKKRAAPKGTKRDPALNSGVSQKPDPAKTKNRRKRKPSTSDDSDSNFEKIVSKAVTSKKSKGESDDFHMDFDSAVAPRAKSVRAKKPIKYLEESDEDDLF

TOP2 Inhib. (Topoisomerase II)	relative activity among compounds tested in the screening round (Topoisomerase II)	SMILES	Cancer Cell Growth Inhib. (Cancer Cell)	DNA damage in cells by H2AXγ protein level (K562 cells)
Y	–	O=C(Nc1ccc(NC2CCCC2)cc1)c1ccc[nH]c1=S [Compound 70]	Y	–
Y	–	CSc1ccccc1C(=O)Nc1ccc(NC(=O)CC(C)C)cc1 [Compound 72]	Y	–
Y	–	O=C(Nc1ccc(NC(=O)N2CCCCCC2)cc1)c1ccc[nH]c1=S [Compound 75]	Y	–
Y	–	CC(Nc1ccc(NC(=O)c2ccc[nH]c2=S)cc1Cl)c1ccccc1 (centres unmarked) [Compound 77]	Y	–
Y	–	O=C(Nc1ccc(N2CCN(C(=O)c3ccoc3)CC2)cc1)c1ccc(Cl)c(Cl)c1 [Compound 88]	Y	–
Y	–	O=C(Nc1ccc(-n2cc(Br)cn2)nc1)c1ccc2ncsc2c1 [Compound 89]	Y	–
Y	–	Cc1ccc(C(=O)Nc2ccc(OC3CCCCC3O)cc2)c(=S)[nH]1 (centres unmarked) [Compound 90]	Y	–
Y	–	O=C(Nc1ccc(N2CCc3sccc3C2)nc1)c1cccnc1S [Compound 110]	Y	–
Y	–	COc1ccc(Nc2ccc(NC(=O)c3cccnc3S)cc2)cc1 [Compound 112]	Y	–
Y	–	CCC(=O)Nc1ccc(Nc2ccc(NC(=O)c3cccnc3S)cc2)cc1 [Compound 113]	Y	–
Y	–	CC(Nc1ccc(NC(=O)c2ccc[nH]c2=S)cc1)c1ccccc1 (centres unmarked) [Compound 115]	Y	–

The next lines start with the compound.

SMILES	TOP2 Inhib. (Topoisomerase II)	relative activity among compounds tested in the screening round (Topoisomerase II)	Cancer Cell Growth Inhib. (Cancer Cell)	DNA damage in cells by H2AXγ protein level (K562 cells)
NC1=C(c2nc3ccccc3s2)C(=O)CN1/N=C\c1ccc(O)c(O)c1 [Compound 19]	Y	most active	Y	–
CC(C)CC(=O)Nc1ccc(NC(=O)c2ccc[nH]c2=S)cc1 [Compound 23]	Y	most active	Y	–
O=C(Nc1ccc(CN2CCCC2)cc1)c1ccc[nH]c1=S [Compound 62]	Y	–	Y	–
COc1cccc(Oc2ccc(NC(=O)c3ccc[nH]c3=S)cc2)c1 [Compound 63]	Y	–	Y	–
CCC(=O)Nc1ccc(NC(=O)c2ccc[nH]c2=S)cc1 [Compound 64]	Y	–	Y	–
N#Cc1ccc(Oc2ccc(NC(=O)c3ccc[nH]c3=S)cc2)cc1 [Compound 65]	Y	–	Y	–
CC(NC(=O)OC(C)(C)C)c1ccc(NC(=O)c2ccc[nH]c2=S)cc1 (centres unmarked) [Compound 67]	Y	–	Y	–
COc1ccc(Sc2ccc(NC(=O)c3ccc[nH]c3=S)cc2)cc1 [Compound 68]	Y	–	Y	–
CC(C(C)N1CC(=O)NC(=O)C1)N1CC(=O)NC(=O)C1 (centres unmarked) [ICRF, 4-[2-(3,5-Dioxo-1-piperazinyl)-1-methylpropyl]piperazine-2,6-dione, reference compound]	–	–	–	do not cause DNA damage
